Measured values published in US9738634B2, “Heterocyclic amide compound and herbicide” (SYNGENTA PARTICIPATIONS AG, priority 2013, dated 2017).

Legend:
Assay type in all cases: in vivo
Details in all cases: treatment dosage 320 g/ha
bulrush [1] = experiment: Test Example 1: weedkilling efficacy, preemergent weed treatment in the submerged state; B: bulrush
How it was run: (§1)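 Emulsion diluted with water to the specified per-hectare dosage is applied onto flood water (4 cm) over alluvial soil on the sowing day, with barnyard grass, bulrush and pondweed seeded and rice (2.5-leaf) transplanted; plants grow at 25–30 °C and are rated at 3 weeks.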

wild oat [2] = experiment: Test Example 3: weedkilling efficacy through soil treatment; G: wild oat
How it was run: (§2)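 Crop and weed responses were judged three weeks after a uniform surface spray of the water-diluted emulsion at the given g/ha rate. Seeds sat beneath about 1.5 cm of sterilized diluvial soil, and boxes stood in a greenhouse at 25 to 30° C.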

barnyard grass [3] = experiment: Test Example 4: weedkilling efficacy by foliar treatment; F: barnyard grass
Procedure: Testing of Weedkilling Efficacy by Foliar Treatment
Sterilized diluvial soil was introduced into 21 cm long, 13 cm wide, 7 cm deep plastic boxes, and seeds of crabgrass, green foxtail, barnyard grass, wild oat, black-grass, Italian ryegrass, common wind-grass, Indian mallow, redroot pigweed, fig-leafed goosefoot, chickweed, catchweed, birds-eye speedwell, corn, soybean, rice, wheat, beet and rapeseed were each spot-sown, and covered with about 1.5 cm of soil, then the plants were grown in a greenhouse at 25 to 30° C.
After they had grown for 14 days, emulsions of compounds of the present invention prepared according to compounding example 2 were diluted with water to give the specified dosages, and applied uniformly onto the stem and leaf parts with a small sprayer. 3 weeks after the pesticide treatment the effect on each type of plant was investigated on the basis of the assessment criteria of test example 1.
A: barnyard grass, B: bulrush, C: oval-leafed pondweed, D: crabgrass, E: green foxtail, F: barnyard grass, G: wild oat, H: black-grass, I: Italian ryegrass, J: common wind-grass, K: Indian mallow, L: redroot pigweed, M: fig-leafed goosefoot, N: chickweed, O: catchweed, p: birds-eye speedwell, a: transplanted rice, b: directly sown rice, c: corn, d: soybean, e: wheat, f: beet, g: rapeseed
Further, pesticide dosage (g/ha) indicates the concentration regulated such that treatment was with only the stated number of grams (g), when calculated per hectare (ha).

transplanted rice = experiment: Test Example 1: preemergent weed treatment in the submerged state, effect on crop; a: transplanted rice
How it was run: as §1

rapeseed [4] = experiment: Test Example 3: soil treatment, effect on crop; g: rapeseed
How it was run: as §2

redroot pigweed [5] = experiment: Test Example 4: weedkilling efficacy by foliar treatment; L: redroot pigweed
How it was run: (§3)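 Seeds are spot-sown into sterilized diluvial soil and covered with about 1.5 cm of soil. After 14 days' greenhouse growth at 25 to 30° C, plants are sprayed on stems and leaves with diluted emulsion at the stated g/ha rate, then scored at 3 weeks.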

beet [6] = experiment: Test Example 4: foliar treatment, effect on crop; f: beet
How it was run: as §3

catchweed [7] = experiment: Test Example 4: weedkilling efficacy by foliar treatment; O: catchweed
How it was run: as §3

fig-leafed goosefoot = experiment: Test Example 4: weedkilling efficacy by foliar treatment; M: fig-leafed goosefoot
How it was run: as §3

barnyard grass [8] = experiment: Test Example 2: weedkilling efficacy, growth period weed treatment in the submerged state; A: barnyard grass
How it was run: (§4)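 First, alluvial soil in pots is flooded to 4 cm and mixed seed is sown. Next, plants grow in a greenhouse at 25 to 30° C until the 1-2 leaf stage. Then diluted emulsion is applied onto the water surface at the given g/ha rate, and injury is assessed after 3 weeks.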

green foxtail [9] = experiment: Test Example 4: weedkilling efficacy by foliar treatment; E: green foxtail
How it was run: as §3

chickweed = experiment: Test Example 4: weedkilling efficacy by foliar treatment; N: chickweed
How it was run: as §3

catchweed [10] = experiment: Test Example 3: weedkilling efficacy through soil treatment; O: catchweed
How it was run: as §2

Indian mallow [11] = experiment: Test Example 4: weedkilling efficacy by foliar treatment; K: Indian mallow
How it was run: as §3

corn [12] = experiment: Test Example 4: foliar treatment, effect on crop; c: corn
How it was run: as §3

rapeseed [13] = experiment: Test Example 4: foliar treatment, effect on crop; g: rapeseed
How it was run: as §3

corn [14] = experiment: Test Example 3: soil treatment, effect on crop; c: corn
How it was run: as §2

common wind-grass [15] = experiment: Test Example 4: weedkilling efficacy by foliar treatment; J: common wind-grass
How it was run: as §3

birds-eye speedwell = experiment: Test Example 3: weedkilling efficacy through soil treatment; p: birds-eye speedwell
How it was run: as §2

soybean [16] = experiment: Test Example 4: foliar treatment, effect on crop; d: soybean
How it was run: as §3

barnyard grass [17] = experiment: Test Example 3: weedkilling efficacy through soil treatment; F: barnyard grass
How it was run: as §2

black-grass [18] = experiment: Test Example 4: weedkilling efficacy by foliar treatment; H: black-grass
How it was run: as §3

barnyard grass [19] = experiment: Test Example 1: weedkilling efficacy, preemergent weed treatment in the submerged state; A: barnyard grass
How it was run: as §1

beet [20] = experiment: Test Example 3: soil treatment, effect on crop; f: beet
How it was run: as §2

Italian ryegrass [21] = experiment: Test Example 3: weedkilling efficacy through soil treatment; I: Italian ryegrass
How it was run: as §2

wild oat [22] = experiment: Test Example 4: weedkilling efficacy by foliar treatment; G: wild oat
How it was run: as §3

directly sown rice [23] = experiment: Test Example 3: soil treatment, effect on crop; b: directly sown rice
How it was run: as §2

Italian ryegrass [24] = experiment: Test Example 4: weedkilling efficacy by foliar treatment; I: Italian ryegrass
How it was run: as §3

crabgrass [25] = experiment: Test Example 3: weedkilling efficacy through soil treatment; D: crabgrass
How it was run: as §2

oval-leafed pondweed [26] = experiment: Test Example 1: weedkilling efficacy, preemergent weed treatment in the submerged state; C: oval-leafed pondweed
How it was run: as §1

wheat [27] = experiment: Test Example 3: soil treatment, effect on crop; e: wheat
How it was run: as §2

green foxtail [28] = experiment: Test Example 3: weedkilling efficacy through soil treatment; E: green foxtail
How it was run: as §2

directly sown rice [29] = experiment: Test Example 4: foliar treatment, effect on crop; b: directly sown rice
How it was run: as §3

common wind-grass [30] = experiment: Test Example 3: weedkilling efficacy through soil treatment; J: common wind-grass
How it was run: as §2

Indian mallow [31] = experiment: Test Example 3: weedkilling efficacy through soil treatment; K: Indian mallow
How it was run: as §2

crabgrass [32] = experiment: Test Example 4: weedkilling efficacy by foliar treatment; D: crabgrass
How it was run: as §3

bulrush [33] = experiment: Test Example 2: weedkilling efficacy, growth period weed treatment in the submerged state; B: bulrush
How it was run: as §4

wheat [34] = experiment: Test Example 4: foliar treatment, effect on crop; e: wheat
How it was run: as §3

black-grass [35] = experiment: Test Example 3: weedkilling efficacy through soil treatment; H: black-grass
How it was run: as §2

oval-leafed pondweed [36] = experiment: Test Example 2: weedkilling efficacy, growth period weed treatment in the submerged state; C: oval-leafed pondweed
How it was run: as §4

soybean [37] = experiment: Test Example 3: soil treatment, effect on crop; d: soybean
How it was run: as §2

redroot pigweed [38] = experiment: Test Example 3: weedkilling efficacy through soil treatment; L: redroot pigweed
How it was run: as §2

## CC1=C(c2ccccc2)C(=O)N(C(C)(C)C(=O)Nc2cc(Br)cc(F)n2)CO1 [B-2-35]
Bulrush [1]
  B (bulrush) weedkilling efficacy grade: 5 (weed kill ratio 90% or more, (practically complete withering))
Wild oat [2]
  G (wild oat) weedkilling efficacy grade: 4 (weed kill ratio 70% or more, less than 90%)
Barnyard grass [3]
  F (barnyard grass) weedkilling efficacy grade: 5 (weed kill ratio 90% or more, (practically complete withering))
Transplanted rice
  a (transplanted rice) effect on crop grade: 0 (weed kill ratio 5% or less (practically no effect))
Rapeseed [4]
  g (rapeseed) effect on crop grade: 4 (weed kill ratio 70% or more, less than 90%)
Redroot pigweed [5]
  L (redroot pigweed) weedkilling efficacy grade: 3 (weed kill ratio 40% or more, less than 70%)
Beet [6]
  f (beet) effect on crop grade: 3 (weed kill ratio 40% or more, less than 70%)
Catchweed [7]
  O (catchweed) weedkilling efficacy grade: 5 (weed kill ratio 90% or more, (practically complete withering))
fig-leafed goosefoot
  M (fig-leafed goosefoot) weedkilling efficacy grade: 4 (weed kill ratio 70% or more, less than 90%)
Barnyard grass [8]
  A (barnyard grass) weedkilling efficacy grade: 5 (weed kill ratio 90% or more, (practically complete withering))
Green foxtail [9]
  E (green foxtail) weedkilling efficacy grade: 5 (weed kill ratio 90% or more, (practically complete withering))
chickweed
  N (chickweed) weedkilling efficacy grade: 3 (weed kill ratio 40% or more, less than 70%)
Catchweed [10]
  O (catchweed) weedkilling efficacy grade: 0 (weed kill ratio 5% or less (practically no effect))
Indian mallow [11]
  K (Indian mallow) weedkilling efficacy grade: 3 (weed kill ratio 40% or more, less than 70%)
Corn [12]
  c (corn) effect on crop grade: 1 (weed kill ratio 5% or more, less than 20%)
Rapeseed [13]
  g (rapeseed) effect on crop grade: 4 (weed kill ratio 70% or more, less than 90%)
Corn [14]
  c (corn) effect on crop grade: 1 (weed kill ratio 5% or more, less than 20%)
Common wind-grass [15]
  J (common wind-grass) weedkilling efficacy grade: 4 (weed kill ratio 70% or more, less than 90%)
birds-eye speedwell
  P (birds-eye speedwell) weedkilling efficacy grade: 4 (weed kill ratio 70% or more, less than 90%)
Soybean [16]
  d (soybean) effect on crop grade: 4 (weed kill ratio 70% or more, less than 90%)
Barnyard grass [17]
  F (barnyard grass) weedkilling efficacy grade: 4 (weed kill ratio 70% or more, less than 90%)
black-grass [18]
  H (black-grass) weedkilling efficacy grade: 4 (weed kill ratio 70% or more, less than 90%)
Barnyard grass [19]
  A (barnyard grass) weedkilling efficacy grade: 5 (weed kill ratio 90% or more, (practically complete withering))
Beet [20]
  f (beet) effect on crop grade: 4 (weed kill ratio 70% or more, less than 90%)
Italian ryegrass [21]
  I (Italian ryegrass) weedkilling efficacy grade: 5 (weed kill ratio 90% or more, (practically complete withering))
Wild oat [22]
  G (wild oat) weedkilling efficacy grade: 2 (weed kill ratio 20% or more, less than 40%)
Directly sown rice [23]
  b (directly sown rice) effect on crop grade: 2 (weed kill ratio 20% or more, less than 40%)
Italian ryegrass [24]
  I (Italian ryegrass) weedkilling efficacy grade: 4 (weed kill ratio 70% or more, less than 90%)
Crabgrass [25]
  D (crabgrass) weedkilling efficacy grade: 5 (weed kill ratio 90% or more, (practically complete withering))
oval-leafed pondweed [26]
  C (oval-leafed pondweed) weedkilling efficacy grade: 5 (weed kill ratio 90% or more, (practically complete withering))
Wheat [27]
  e (wheat) effect on crop grade: 1 (weed kill ratio 5% or more, less than 20%)
Green foxtail [28]
  E (green foxtail) weedkilling efficacy grade: 5 (weed kill ratio 90% or more, (practically complete withering))
Directly sown rice [29]
  b (directly sown rice) effect on crop grade: 4 (weed kill ratio 70% or more, less than 90%)
Common wind-grass [30]
  J (common wind-grass) weedkilling efficacy grade: 5 (weed kill ratio 90% or more, (practically complete withering))
Indian mallow [31]
  K (Indian mallow) weedkilling efficacy grade: 4 (weed kill ratio 70% or more, less than 90%)
Crabgrass [32]
  D (crabgrass) weedkilling efficacy grade: 5 (weed kill ratio 90% or more, (practically complete withering))
Bulrush [33]
  B (bulrush) weedkilling efficacy grade: 5 (weed kill ratio 90% or more, (practically complete withering))
Wheat [34]
  e (wheat) effect on crop grade: 0 (weed kill ratio 5% or less (practically no effect))
black-grass [35]
  H (black-grass) weedkilling efficacy grade: 5 (weed kill ratio 90% or more, (practically complete withering))
oval-leafed pondweed [36]
  C (oval-leafed pondweed) weedkilling efficacy grade: 5 (weed kill ratio 90% or more, (practically complete withering))
Soybean [37]
  d (soybean) effect on crop grade: 0 (weed kill ratio 5% or less (practically no effect))
Redroot pigweed [38]
  L (redroot pigweed) weedkilling efficacy grade: 3 (weed kill ratio 40% or more, less than 70%)
